Target: T1, CCDC6-RET (Homo sapiens, UniProt P07949+Q16204+Q96SW2)
T1 construct: CCDC6 (natural N-terminal fusion partner, UniProt Q16204); endogenous in cells; host or cells: TPC-1 (parental, papillary thyroid carcinoma)
Assay: Cellular RET degradation, AlphaLISA, TPC-1 cell line
Type: cell-based
Conditions: for Dmax: TPC1, human, 24 h, read-out: Cell Density TPC-1/CCDC6-RET Ymax %; for DC50: read-out: Cell Density TPC-1/CCDC6-RET DC50, half-maximal degradation concentration, TPC-1 (CCDC6-RET), 24 hrs
Procedure: Cellular RET degradation compound potency was determined using the bead-based luminescent amplification assay-AlphaLISA Surefire Ultra Detection Kit (Perkin-Elmer). The CCDC6-RET fusion expressing papillary thyroid carcinoma (TPC-1) cell line was selected for screening of potential degraders: Parental (TPC-1/CCDC6-RET). Cells were plated in 384 well culture plates (Greiner Bio-One) at 10,000 cells/well in 50 ul/well DMEM (Fisher Scientific) with 2% FBS serum (Gibco). […] Low normalization wells were media only and high normalization wells were cells treated with DMSO only. Treated cell plates were placed in an incubator at 37 °C and 5% CO2 for 24 hrs. At 24 hrs, cell media was removed by a FELIX automated liquid hander (Analytik Jena) and 25 ul of cell lysis buffer (provided in AlphaLisa kit) was added to each well. […] cell lysate were transferred into a 384-well microplate (Perkin Elmer) before addition of 2.5 ul AlphaLISA Acceptor Bead mix. The plates were sealed and kept at room temperature for 1 hr before addition of donor bead mixture. Donor bead addition was performed in the dark and incubated for >1 hr before AlphaLISA luminescence was measured on an Envision plate reader with an Alphascreen aperture at RT (excitation 680 nm, emission 615 nm). RET protein abundance (and therefore degradation) directly corresponds to luminescence intensity.
Intensities were normalized relative to the average values from 16 wells containing media alone (blank-low) and 16 wells containing cells +DMSO (high). % Degradation for each well was determined using the standard equation, where
DC50 (IC50) values for each compound tested are calculated by analyzing plots of % degradation versus compound concentration, and fitting to the standard 4-parameter logistic curve where,
DC50 values are calculated according to the relationship,
Compound replicates were performed in independent assays. Maximum degradation (YMax) was defined as the maximal % degradation value from the 4-parameter logistic equation, as previously described.

T1 sequence (Q16204+P07949 fused): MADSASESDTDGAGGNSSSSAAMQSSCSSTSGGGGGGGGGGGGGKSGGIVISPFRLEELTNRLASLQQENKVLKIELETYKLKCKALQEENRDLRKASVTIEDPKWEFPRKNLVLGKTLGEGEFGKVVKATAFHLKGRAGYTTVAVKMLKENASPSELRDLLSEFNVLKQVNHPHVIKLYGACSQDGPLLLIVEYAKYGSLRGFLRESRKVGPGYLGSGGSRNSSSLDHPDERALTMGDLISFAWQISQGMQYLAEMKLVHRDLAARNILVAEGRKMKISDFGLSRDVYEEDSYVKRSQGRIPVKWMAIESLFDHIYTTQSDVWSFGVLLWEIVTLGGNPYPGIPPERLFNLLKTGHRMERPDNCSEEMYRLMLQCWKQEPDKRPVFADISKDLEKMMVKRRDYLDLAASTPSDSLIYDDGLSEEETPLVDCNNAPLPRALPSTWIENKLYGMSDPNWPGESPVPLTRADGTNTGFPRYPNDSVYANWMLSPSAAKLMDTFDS
T1 sequence (Q96SW2 whole entry, the tested form may be a part): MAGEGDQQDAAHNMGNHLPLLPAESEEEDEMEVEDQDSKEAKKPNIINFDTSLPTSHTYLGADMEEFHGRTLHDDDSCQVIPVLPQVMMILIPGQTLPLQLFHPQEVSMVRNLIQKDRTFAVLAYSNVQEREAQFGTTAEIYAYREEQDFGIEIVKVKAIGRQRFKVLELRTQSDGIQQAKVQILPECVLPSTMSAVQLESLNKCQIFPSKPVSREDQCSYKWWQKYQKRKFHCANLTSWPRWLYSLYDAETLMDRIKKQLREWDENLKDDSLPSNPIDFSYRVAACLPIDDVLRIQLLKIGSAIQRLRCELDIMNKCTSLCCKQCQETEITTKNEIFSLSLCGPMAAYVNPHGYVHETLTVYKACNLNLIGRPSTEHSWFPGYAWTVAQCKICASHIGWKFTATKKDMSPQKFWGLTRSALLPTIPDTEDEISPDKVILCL
T1 sequence (Q16531 whole entry partner, the tested form may be a part): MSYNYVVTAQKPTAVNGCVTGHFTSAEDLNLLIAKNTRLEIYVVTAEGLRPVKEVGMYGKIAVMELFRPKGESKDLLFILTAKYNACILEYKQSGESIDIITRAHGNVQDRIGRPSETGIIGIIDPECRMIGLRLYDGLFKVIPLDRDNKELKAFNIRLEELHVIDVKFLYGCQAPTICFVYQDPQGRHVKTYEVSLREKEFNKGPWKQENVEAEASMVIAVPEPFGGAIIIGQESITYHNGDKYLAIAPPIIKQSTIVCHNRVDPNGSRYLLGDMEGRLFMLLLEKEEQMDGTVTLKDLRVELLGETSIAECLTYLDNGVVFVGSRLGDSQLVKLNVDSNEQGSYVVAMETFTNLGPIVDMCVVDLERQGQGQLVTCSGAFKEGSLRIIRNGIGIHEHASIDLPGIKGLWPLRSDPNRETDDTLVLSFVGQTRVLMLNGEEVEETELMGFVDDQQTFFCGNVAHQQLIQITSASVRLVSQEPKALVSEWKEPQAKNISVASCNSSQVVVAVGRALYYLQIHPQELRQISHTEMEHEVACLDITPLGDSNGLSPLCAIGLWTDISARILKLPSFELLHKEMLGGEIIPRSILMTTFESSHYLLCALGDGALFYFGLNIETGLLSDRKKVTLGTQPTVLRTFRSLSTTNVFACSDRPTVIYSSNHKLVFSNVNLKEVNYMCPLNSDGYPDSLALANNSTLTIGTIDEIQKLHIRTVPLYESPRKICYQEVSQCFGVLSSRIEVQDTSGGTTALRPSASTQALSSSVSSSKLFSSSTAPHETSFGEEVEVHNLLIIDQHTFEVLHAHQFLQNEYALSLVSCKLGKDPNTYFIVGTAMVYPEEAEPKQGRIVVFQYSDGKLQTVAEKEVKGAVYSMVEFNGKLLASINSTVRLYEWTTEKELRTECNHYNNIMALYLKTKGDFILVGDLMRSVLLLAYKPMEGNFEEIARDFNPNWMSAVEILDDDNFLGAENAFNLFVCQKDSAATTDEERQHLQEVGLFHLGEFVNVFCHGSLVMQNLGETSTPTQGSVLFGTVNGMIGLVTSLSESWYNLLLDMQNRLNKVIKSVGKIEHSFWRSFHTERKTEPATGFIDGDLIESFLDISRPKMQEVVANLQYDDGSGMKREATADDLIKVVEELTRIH

Row | SMILES | Dmax [%] | DC50 [nM]
1 | CCOc1cc(-c2ccc(N3CCC(COCC(=O)NCCCCCCN4CCN(c5ccc6c(c5)CN(C5CCC(=O)NC5=O)C6=O)CC4)(NC(=O)c4cc(F)ccc4F)CC3)nc2)c2c(C#N)cnn2c1 (centres unmarked) [Example 38, N-[1-[5-(3-cyano-6-ethoxy-pyrazolo[1,5-a]pyridin-4-yl)-2-pyridyl]-4-[[2-[6-[4-[2-(2,6-dioxo-3-piperidyl)-1-oxo-isoindolin-5-yl]piperazin-1-yl]hexylamino]-2-oxo-ethoxy]methyl]-4-piperidyl]-2,5-difluoro-benzamide] | > 90 | < 2
2 | CCOc1cc(-c2ccc(N3CCC(CN4CCN(C(=O)CCN5CCN(c6ccc7c(N8CCC(=O)NC8=O)nn(C)c7c6)CC5)CC4)(NC(=O)c4cc(F)ccc4F)CC3)nc2)c2c(C#N)cnn2c1 [Example 39, N-(1-(5-(3-cyano-6-ethoxypyrazolo[1,5-a]pyridin-4-yl)pyridin-2-yl)-4-((4-(3-(4-(3-(2,4-dioxotetrahydropyrimidin-1(2H)-yl)-1-methyl-1H-indazol-6-yl)piperazin-1-yl)propanoyl)piperazin-1-yl)methyl)piperidin-4-yl)-2,5-difluorobenzamide] | 60 to 90 | < 2
3 | CCOc1cc(-c2ccc(N3CCC(CN4CCN(C(=O)CCCCN5CCN(c6ccc7c(N8CCC(=O)NC8=O)nn(C)c7c6)CC5)CC4)(NC(=O)c4cc(F)ccc4F)CC3)nc2)c2c(C#N)cnn2c1 [Example 40, N-(1-(5-(3-cyano-6-ethoxypyrazolo[1,5-a]pyridin-4-yl)pyridin-2-yl)-4-((4-(5-(4-(3-(2,4-dioxotetrahydropyrimidin-1(2H)-yl)-1-methyl-1H-indazol-6-yl)piperazin-1-yl)pentanoyl)piperazin-1-yl)methyl)piperidin-4-yl)-2,5-difluorobenzamide] | > 90 | 2 to 10
4 | CCOc1cc(-c2ccc(N3CCC(CN4CCN(C(=O)CCCCCCN5CCN(c6ccc7c(N8CCC(=O)NC8=O)nn(C)c7c6)CC5)CC4)(NC(=O)c4cc(F)ccc4F)CC3)nc2)c2c(C#N)cnn2c1 [Example 41, N-(1-(5-(3-cyano-6-ethoxypyrazolo[1,5-a]pyridin-4-yl)pyridin-2-yl)-4-((4-(7-(4-(3-(2,4-dioxotetrahydropyrimidin-1(2H)-yl)-1-methyl-1H-indazol-6-yl)piperazin-1-yl)heptanoyl)piperazin-1-yl)methyl)piperidin-4-yl)-2,5-difluorobenzamide] | > 90 | < 2
5 | CCOc1cc(-c2ccc(N3CCC(CN4CCN(C(=O)CCCCCN5CCC(c6ccc7c(N8CCC(=O)NC8=O)nn(C)c7c6)CC5)CC4)(NC(=O)c4cc(F)ccc4F)CC3)nc2)c2c(C#N)cnn2c1 [Example 42, N-(1-(5-(3-cyano-6-ethoxypyrazolo[1,5-a]pyridin-4-yl)pyridin-2-yl)-4-((4-(6-(4-(3-(2,4-dioxotetrahydropyrimidin-1(2H)-yl)-1-methyl-1H-indazol-6-yl)piperidin-1-yl)hexanoyl)piperazin-1-yl)methyl)piperidin-4-yl)-2,5-difluorobenzamide] |  | < 2
6 | CCOc1cc(-c2ccc(N3CCC(CN4CCN(C(=O)CCCN5CCN(c6ccc7c(N8CCC(=O)NC8=O)nn(C)c7c6)CC5)CC4)(NC(=O)c4cc(F)ccc4F)CC3)nc2)c2c(C#N)cnn2c1 [Example 43, N-(1-(5-(3-cyano-6-ethoxypyrazolo[1,5-a]pyridin-4-yl)pyridin-2-yl)-4-((4-(4-(4-(3-(2,4-dioxotetrahydropyrimidin-1(2H)-yl)-1-methyl-1H-indazol-6-yl)piperazin-1-yl)butanoyl)piperazin-1-yl)methyl)piperidin-4-yl)-2,5-difluorobenzamide] | > 90 | < 2
7 | CCOc1cc(-c2ccc(N3CCC(CN4CCN(C(=O)CN5CCC(c6ccc7c(N8CCC(=O)NC8=O)nn(C)c7c6)CC5)CC4)(NC(=O)c4cc(F)ccc4F)CC3)nc2)c2c(C#N)cnn2c1 [Example 44, N-(1-(5-(3-cyano-6-ethoxypyrazolo[1,5-a]pyridin-4-yl)pyridin-2-yl)-4-((4-(2-(4-(3-(2,4-dioxotetrahydropyrimidin-1(2H)-yl)-1-methyl-1H-indazol-6-yl)piperidin-1-yl)acetyl)piperazin-1-yl)methyl)piperidin-4-yl)-2,5-difluorobenzamide] | 60 to 90 | < 2
8 | CCOc1cc(-c2ccc(N3CCC(COCc4cn(CCCCCCN5CCN(c6ccc7c(c6)CN(C6CCC(=O)NC6=O)C7=O)CC5)nn4)(NC(=O)c4cc(F)ccc4F)CC3)nc2)c2c(C#N)cnn2c1 (centres unmarked) [Example 47, N-[1-[5-(3-cyano-6-ethoxy-pyrazolo[1,5-a]pyridin-4-yl)-2-pyridyl]-4-[[1-[6-[4-[2-(2,6-dioxo-3-piperidyl)-1-oxo-isoindolin-5-yl]piperazin-1-yl]hexyl]triazol-4-yl]methoxymethyl]-4-piperidyl]-2,5-difluoro-benzamide] | > 90 | 2 to 10
9 | CCOc1cc(-c2ccc(N3CCC(COCc4cn(CCCCN5CCN(c6ccc7c(c6)CN(C6CCC(=O)NC6=O)C7=O)CC5)nn4)(NC(=O)c4cc(F)ccc4F)CC3)nc2)c2c(C#N)cnn2c1 (centres unmarked) [Example 48, N-[1-[5-(3-cyano-6-ethoxy-pyrazolo[1,5-a]pyridin-4-yl)-2-pyridyl]-4-[[1-[4-[4-[2-(2,6-dioxo-3-piperidyl)-1-oxo-isoindolin-5-yl]piperazin-1-yl]butyl]triazol-4-yl]methoxymethyl]-4-piperidyl]-2,5-difluoro-benzamide] | > 90 | 2 to 10
10 | CCOc1cc(-c2ccc(N3CCC(COCc4cn(CCN5CCN(c6ccc7c(c6)CN(C6CCC(=O)NC6=O)C7=O)CC5)nn4)(NC(=O)c4cc(F)ccc4F)CC3)nc2)c2c(C#N)cnn2c1 (centres unmarked) [Example 49, N-[1-[5-(3-cyano-6-ethoxy-pyrazolo[1,5-a]pyridin-4-yl)-2-pyridyl]-4-[[1-[2-[4-[2-(2,6-dioxo-3-piperidyl)-1-oxo-isoindolin-5-yl]piperazin-1-yl]ethyl]triazol-4-yl]methoxymethyl]-4-piperidyl]-2,5-difluoro-benzamide] | > 90 | 2 to 10
11 | CCOc1cc(-c2ccc(N3CCC(COCc4cn(CCCN5CCN(c6ccc7c(c6)CN(C6CCC(=O)NC6=O)C7=O)CC5)nn4)(NC(=O)c4cc(F)ccc4F)CC3)nc2)c2c(C#N)cnn2c1 (centres unmarked) [Example 50, N-(1-(5-(3-cyano-6-ethoxypyrazolo[1,5-a]pyridin-4-yl)pyridin-2-yl)-4-(((1-(3-(4-(2-(2,6-dioxopiperidin-3-yl)-1-oxoisoindolin-5-yl)piperazin-1-yl)propyl)-1H-1,2,3-triazol-4-yl)methoxy)methyl)piperidin-4-yl)-2,5-difluorobenzamide] | 60 to 90 | 2 to 10
12 | CCOc1cc(-c2ccc(N3CCC(Cc4ccccc4)(NC(=O)N4CCN(C(=O)CCN5CCC(c6ccc7c(c6)C(=O)N(C6CCC(=O)NC6=O)C7)CC5)CC4)CC3)nc2)c2c(C#N)cnn2c1 (centres unmarked) [Example 51, N-[4-benzyl-1-[5-(3-cyano-6-ethoxy-pyrazolo[1,5-a]pyridin-4-yl)-2-pyridyl]-4-piperidyl]-4-[3-[4-[2-(2,6-dioxo-3-piperidyl)-3-oxo-isoindolin-5-yl]-1-piperidyl]propanoyl]piperazine-1-carboxamide] | 60 to 90 | 10 to 100
